Reference: publication PMC4876444, “Two-Photon Enzymatic Probes Visualizing Sub-cellular/Deep-brain Caspase Activities in Neurodegenerative Models” (Scientific Reports, 2016)

Columns and labels:
[1] = system: NIH/3T3, BV2 and HeLa cells; assay: XTT cytotoxicity assay; assay type: cell-based, mouse, human; conditions: XTT assay, 12, 30, 60, 120 μM, 24 h
Description: Supplementary Figure 4. Cytotoxicity of two-photon enzymatic probes (12, 30, 60, 120 μM) in mammalian cells (NIH/3T3, BV2 and HeLa) after incubation for 24 h, as determined by XTT assay. […]
Detection of caspase activities in mammalian cells and tissues
Cell culture. The mouse embryonic fibroblast cell line (NIH/3T3), mouse microglial cell line (BV2) and human epithelial carcinoma cell line (HeLa) used in our experiments were cultured in Dulbecco’s Modified Eagle's Medium (DMEM) supplemented with 10% (for NIH/3T3 and HeLa) or 5% (for BV2) fetal bovine serum (FBS), 100.0 mg/L streptomycin and 100 IU/mL penicillin in a humidified atmosphere of 5% CO2 at 37 °C.
XTT assay. The cytotoxicity of our probes was determined by using the XTT colorimetric cell proliferation kit (Roche) following manufacturer’s guidelines. Briefly, NIH/3T3, BV2 and HeLa cells were seeded in 20~30% confluency (since they will reach >50% confluency within 24 h) into 96-well plates and incubated overnight before the addition of probes with concentrations of 12 μM, 30 μM, 60 μM and 120 μM, respectively. Probes were applied from DMSO stocks whereby DMSO never exceeded 1% in the final solution. The same volume of DMSO was used as a negative control; and the same volume of STS (200 nM) was used as a positive control. After a total treatment time of 24 h, proliferation was assayed using the XTT assay (Supplementary Fig. 4). […]

[2] = not given; remark: listed apart in the source
[3] = system: HeLa cells; assay: Permeability of free dye and probes in live cells (fluorescence imaging); assay type: cell-based, human; conditions: HeLa cells, DMSO/STS 1 μM 4 h, then probe 24 μM 1 h at 4 °C or 37 °C, one-photon imaging
Description: Supplementary Figure 5. Detection of caspase activities in live mammalian cells. (a) One-photon images of AAN (5 μM)/probes (24 μM)/DMSO (blank) in live HeLa cells after 1-h incubation together with LysoTracker. (Panels 1-7) bright field; (Panels 8-14) λex = 405 nm, λem = 420-480 nm (indicative of probes, blue); (Panels 15-21) λex = 405 nm, λem = 470-500 nm (indicative of AAN, green); (Panels 22-28) LysoTracker (λex = 543 nm, λem = 560-615 nm, red); (Panels 29-35) merged images of blue/red channels. Scale bar: 20 μm. (b) Bioimaging of NIH/3T3 cells transfected with active caspase-1 (Panels 2/3/5/6; 50 ng)/caspase-3 (Panels 8/9; 15 ng)/caspase-8 (Panels 11/12; 5 ng) with/without inhibitor treatment (Panels 3/6/9/12, 50 μM of Z-VAD-FMK incubated for 1 h before probes were added) as well as control cells (Panels 1/4/7/10, no caspase transfection) by using C1RB (24 μM)/C1FS (12 μM) for caspase-1, C3RA (24 μM) for caspase-3 and C8RA (24 μM) for caspase-8. Cells were co-stained with membrane tracker. (Green) signals from caspase-cleaved probes (λex = 760 nm, λem = 480-550 nm for all probes, except for C1FS with λem = 450-550 nm). (Red) membrane tracker (λex = 650 nm, λem = 655-740 nm). (Inset) bright field. Scale bar = 10 μm. […]
XTT assay. The cytotoxicity of our probes was determined by using the XTT colorimetric cell proliferation kit (Roche) following manufacturer’s guidelines. […]

SMILES: CC(=O)N[C@@H](CC(=O)O)C(=O)N[C@@H](CCC(=O)O)C(=O)N[C@H](C(=O)N[C@@H](CC(=O)O)C(=O)Nc1ccc2cc(C(C)=O)ccc2c1)C(C)C [C3RA, Ac-DEVD-AAN]
- λex (absorption/excitation maximum): 316 nm
- cytotoxicity [1]: minimally cytotoxic
- λem (emission maximum) [2]: 448 nm
- endocytosis and endo/lysosomal trapping of the probe [3]: no obvious
